One experiment has as its target HDAC1 (Homo sapiens, UniProt Q13547). Put plainly: HDAC biochemical activity measurement (fluorescent substrate deacetylation). Particulars: Table 3, column C; read-out: IC50 HDAC1, C (six-membered ring with substituents).
For experiment [1], the system named is A549 (human lung cancer cells). Put plainly: MTT cancer cell growth inhibition. The settings on record: Homo sapiens, A549, 72 h, MTT, 72 hours incubation, read-out: GI50 A54. Type of experiment: cell-based. Summed up: (§1)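 Absorbance at 570 nm of DMSO-dissolved formazan, formed during a 4 h MTT incubation, served as the viability measure. Cells had been exposed 72 h to drug at 10^−5–10^−10 M final; GI50 was calculated from these readings.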

In experiment [2] the test system is BGC-823 (human gastric cancer cells). Put plainly: MTT cancer cell growth inhibition. Type of experiment: cell-based. The settings on record: Homo sapiens, BGC-823, 72 h, MTT, 72 hours incubation, read-out: GI50 BG. Summed up: as §1
Experiment [3] has as its system Bel-7402 (human hepatoma cells). Description: MTT cancer cell growth inhibition. Type of experiment: cell-based. The settings on record: Homo sapiens, Bel-7402, 72 h, MTT, 72 hours incubation, Bel-7402 cells; read-out: GI50 Bel-7402. The gist of the method:
as §1

The test system of experiment [4] is DU145 (human prostate cancer cells). Description: MTT cancer cell growth inhibition. Type of experiment: cell-based. Particulars: Homo sapiens, DU-145, 72 h, MTT, 72 hours incubation, read-out: GI50 Du1. The gist of the method: as §1
Experiment [5] deals with H1975 (non-small cell lung adenocarcinoma). Description: MTT cancer cell growth inhibition. Type of experiment: cell-based. The settings on record: Homo sapiens, NCI-H1975, 72 h, MTT, 72 hours incubation, H1975 cells; read-out: GI50 H1975. The gist of the method: as §1
In experiment [6] the test system is HCC827 (human non-small cell lung cancer cells). Put plainly: MTT cancer cell growth inhibition. Type of experiment: cell-based. The settings on record: Homo sapiens, HCC827, 72 h, MTT, 72 hours incubation, HCC827 cells; read-out: GI50 HCC827. The gist of the method:
as §1

Experiment [7] relates to HT1080 (human fibrosarcoma cells). Put plainly: MTT cancer cell growth inhibition. Type of experiment: cell-based. Particulars: Homo sapiens, HT-1080, 72 h, MTT, 72 hours incubation, read-out: GI50 HT1. The gist of the method: as §1
Experiment [8] has as its system Hela (human cervical cancer cells). Put plainly: MTT cancer cell growth inhibition. Type of experiment: cell-based. Particulars: Homo sapiens, HeLa, 72 h, MTT, 72 hours incubation, read-out: GI50 Hela. The gist of the method: as §1
Experiment [9] deals with Huh-7 (human hepatoma cells). Put plainly: MTT cancer cell growth inhibition. The settings on record: Homo sapiens, Huh-7, 72 h, MTT, 72 hours incubation, Huh-7 cells; read-out: GI50 Huh-7. Type of experiment: cell-based. The gist of the method: as §1
In experiment [10] the test system is K562 (human leukemia cells). Put plainly: MTT cancer cell growth inhibition. Type of experiment: cell-based. Particulars: Homo sapiens, K562, 72 h, MTT, 72 hours incubation, K562 cells; read-out: GI50 K562. The gist of the method:
as §1

Experiment [11] has as its system KBM-5 (human chronic myelogenous leukemia). Put plainly: MTT cancer cell growth inhibition. Type of experiment: cell-based. Particulars: Homo sapiens, KBM5, 72 h, MTT, 72 hours incubation, KBM-5 cells; read-out: GI50 KBM-5. The gist of the method:
as §1

In experiment [12] the test system is KBM5-T315I (human chronic myelogenous leukemia). Description: MTT cancer cell growth inhibition. Type of experiment: cell-based. The settings on record: Homo sapiens, 72 h, MTT, 72 hours incubation, KBM5-T315I cells; read-out: GI50 KBM5-T315I. The gist of the method:
as §1

Experiment [13] has as its system MCF-7 (human breast cancer cells). Put plainly: MTT cancer cell growth inhibition. Type of experiment: cell-based. The settings on record: Homo sapiens, MCF7, 72 h, 72 hours incubation, read-out: GI50 MCF. The gist of the method: as §1
The test system of experiment [14] is MDA-MB-231 (breast cancer cells). Description: MTT cancer cell growth inhibition. Type of experiment: cell-based. Particulars: Homo sapiens, MDA-MB-231, 72 h, read-out: GI50 MDA-MB-231, MTT, 72 hours incubation, MDA-MB-231 cells. Summed up: as §1
Experiment [15] concerns MOLT-4 (human acute lymphoblastic leukemia cells). Description: MTT cancer cell growth inhibition. Type of experiment: cell-based. Particulars: Homo sapiens, MOLT-4, 72 h, MTT, 72 hours incubation, read-out: GI50 Mol. Summed up: as §1
The test system of experiment [16] is N-87 (human gastric cancer cells). Description: MTT cancer cell growth inhibition. Type of experiment: cell-based. Particulars: Homo sapiens, 72 h, MTT, 72 hours incubation, N-87 cells; read-out: GI50 N-87. Summed up:
as §1

Experiment [17] concerns PANC-1 (Pac-1, human pancreatic cancer cells). Description: MTT cancer cell growth inhibition. Type of experiment: cell-based. Particulars: Homo sapiens, PANC-1, 72 h, MTT, 72 hours incubation, read-out: GI50 PAN. The gist of the method: as §1
Experiment [18] has as its system SGC-7901 (human gastric cancer cells). Description: MTT cancer cell growth inhibition. Type of experiment: cell-based. The settings on record: Homo sapiens, SGC-7901, 72 h, MTT, 72 hours incubation, SGC-7901 cells; read-out: GI50 SGC-7901. Summed up:
as §1

The test system of experiment [19] is U937 (human leukemia cells). Description: MTT cancer cell growth inhibition. Type of experiment: cell-based. Particulars: Homo sapiens, U-937, 72 h, MTT, 72 hours incubation, read-out: GI50 U93. The gist of the method: as §1
In experiment [20] the test system is lncap (prostate cancer cells). Description: MTT cancer cell growth inhibition. Type of experiment: cell-based. The settings on record: Homo sapiens, LNCaP, 72 h, MTT, 72 hours incubation, read-out: GI50 lnca. Summed up: as §1
A further experiment deals with T1, HDAC7 (Homo sapiens, UniProt Q8WUI4).
T1 sequence (Q8WUI4 1-952): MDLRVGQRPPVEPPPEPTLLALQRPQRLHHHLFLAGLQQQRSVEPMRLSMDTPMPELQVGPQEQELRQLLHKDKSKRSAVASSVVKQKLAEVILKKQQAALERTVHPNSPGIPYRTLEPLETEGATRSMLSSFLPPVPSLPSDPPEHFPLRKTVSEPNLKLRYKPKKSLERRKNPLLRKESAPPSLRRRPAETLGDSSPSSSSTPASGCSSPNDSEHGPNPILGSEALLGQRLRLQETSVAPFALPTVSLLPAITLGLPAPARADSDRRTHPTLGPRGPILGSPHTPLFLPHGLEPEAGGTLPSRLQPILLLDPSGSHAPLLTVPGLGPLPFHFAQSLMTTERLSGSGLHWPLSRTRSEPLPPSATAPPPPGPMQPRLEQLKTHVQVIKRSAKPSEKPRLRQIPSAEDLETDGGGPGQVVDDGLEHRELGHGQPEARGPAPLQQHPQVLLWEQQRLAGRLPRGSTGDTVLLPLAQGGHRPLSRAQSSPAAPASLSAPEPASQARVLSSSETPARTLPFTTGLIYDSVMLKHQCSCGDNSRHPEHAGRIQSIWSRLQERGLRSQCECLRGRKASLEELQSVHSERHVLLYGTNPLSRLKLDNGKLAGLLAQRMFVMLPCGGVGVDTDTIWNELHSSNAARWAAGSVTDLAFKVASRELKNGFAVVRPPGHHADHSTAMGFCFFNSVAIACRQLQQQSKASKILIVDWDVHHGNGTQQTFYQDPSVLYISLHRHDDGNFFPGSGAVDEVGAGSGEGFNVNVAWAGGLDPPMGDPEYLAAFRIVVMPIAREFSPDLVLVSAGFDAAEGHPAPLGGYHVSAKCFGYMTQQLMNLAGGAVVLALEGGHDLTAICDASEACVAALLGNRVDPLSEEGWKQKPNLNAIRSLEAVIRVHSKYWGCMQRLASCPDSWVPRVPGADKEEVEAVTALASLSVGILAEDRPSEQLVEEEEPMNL
Description: HDAC biochemical activity measurement (fluorescent substrate deacetylation). Particulars: HDAC7; 37° C. 30 minutes.

From patent US10065990B2, “Cyclic peptide compound, and preparation method, pharmaceutical composition and use thereof” (HANGZHOU GUANYU BIO-MEDICAL CO., LTD, priority 2013, dated 2018) come the findings set out here.

Where two headings read alike, the source gives them in different places.
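Throughout, for IC50 HDAC1, C (six-membered ring with substituents): fluorogenic acetyl-lysine substrate (20 µM) deacetylated by HDAC1, then developer releases fluorophore read at 360 nm excitation and 460 nm emission, inhibitor incubated 30 min at 37 °C.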
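Throughout, for IC50 HDAC7: fluorogenic deacetylation assay using acetyl-lysine substrate at 20 µM, enzyme and compound incubated 30 min at 37 °C, then developer added, fluorescence read at 360/460 nm.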

HDAC1, sequence (Q13547 whole entry, species assumed): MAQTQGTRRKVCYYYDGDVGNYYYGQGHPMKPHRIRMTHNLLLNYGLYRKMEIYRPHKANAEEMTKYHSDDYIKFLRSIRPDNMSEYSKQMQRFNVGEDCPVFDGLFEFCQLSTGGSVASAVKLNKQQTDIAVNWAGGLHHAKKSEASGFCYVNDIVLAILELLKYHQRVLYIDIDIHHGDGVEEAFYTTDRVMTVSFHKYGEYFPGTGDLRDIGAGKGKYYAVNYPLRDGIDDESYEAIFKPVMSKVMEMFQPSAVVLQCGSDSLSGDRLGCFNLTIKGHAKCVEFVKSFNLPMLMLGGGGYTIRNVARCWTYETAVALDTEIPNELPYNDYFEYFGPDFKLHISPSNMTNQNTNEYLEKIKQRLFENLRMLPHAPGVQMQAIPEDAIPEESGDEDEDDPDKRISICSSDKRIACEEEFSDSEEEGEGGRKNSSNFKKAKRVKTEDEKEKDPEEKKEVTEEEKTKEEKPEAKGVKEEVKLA
Description for HDAC7: The chemical activity of the compound is determined according to the degree of deacetylation inhibition of the HDAC enzyme. This experiment measured the degree of deacetylation related to tumor proliferation and metastasis of HDAC1, HDAC2, HDAC3, HDAC8, HDAC11 five subtypes HDAC enzymes. After the substrate containing an acetylated lysine side chain and HDAC enzyme are labeled with a fluorescent label, the fluorescent substrate is de acetyl. The fluorescent labeled substrate is cleaved by the enzyme, and the fluorescent substance is released, which generates 460 nm emission light under the excitation of 360 nm light.
HDAC substrate was diluted with reaction buffer to 200M (reaction concentration of 20M), the HDAC enzyme was diluted to the appropriate concentration, then added different concentrations of the test compounds and acted at 37° C. 30 minutes, and then added the same volume of 2-times concentration substrate developing solution (developer), incubated at room temperature for 15 minutes. Finally, the last reading measured with a microplate plate reader, excitation light was 360 nm, the emitted light was 460 nm, data processing software was Prime 4, and the results are shown in Table 1.

As to `C/C=C1\NC(=O)c2cc(F)cc(n2)CNC(=O)C[C@@H](/C=C/CCSC(C)=O)OC(=O)[C@H](C)NC1=O` [Compound 64], the IC50 at HDAC1 was found to be 24 nM. For the same molecule, the GI50 in [1] was 30 nM; in experiment [2] it was 30 nM; in experiment [3], 51 nM; in experiment [4], 20 nM; in [5], 38 nM; in [6], 51 nM. Besides, the GI50 in experiment [7] was 50 nM; in [8] it was 80 nM; in [9], 46 nM; in experiment [10], 26 nM; in experiment [11], 82 nM; in experiment [12], 22 nM. Also, the GI50 worked out at 20 nM in experiment [13]; 46 nM in experiment [14]; 40 nM in experiment [15]; 30 nM in experiment [16]; 50 nM in [17]; 35 nM in [18]. Besides, the results for the GI50 in [19] and in [20] were 30 nM and 40 nM, respectively.

On to `C/C=C1\NC(=O)c2nc(ccc2SC)CNC(=O)C[C@@H](/C=C/CCSC(=O)CC)OC(=O)[C@H](C(C)C)NC1=O` [Compound 162], for which the “IC50 HDAC7” value at HDAC7 is recorded as “no activity”. Also, the GI50 in experiment [1] (A549 cells) amounted to 90 nM; in experiment [2] (BGC-823 cells), 50 nM; in experiment [3], 35 nM; in experiment [4] (DU145 cells), 10 nM; in [5], 49 nM; in [6], 51 nM. Besides, the GI50 was 70 nM in experiment [7] (HT1080 cells); 80 nM in experiment [8] (Hela cells); 81 nM in experiment [9]; 73 nM in experiment [10]; 42 nM in experiment [11]; 16 nM in experiment [12]. Also, the GI50 was 40 nM in experiment [13] (MCF-7 cells); 79 nM in experiment [14]; 70 nM in [15] (MOLT-4 cells); 18 nM in [16]; 70 nM in experiment [17] (PANC-1 cells); 78 nM in experiment [18]. Besides, the GI50 in experiment [19] (U937 cells) and in experiment [20] (lncap cells) was 50 nM throughout.

For the molecule `C/C=C1\NC(=O)c2nc(ccc2F)CNC(=O)C[C@@H](/C=C/CCSC(C)=O)OC(=O)[C@H](CCCCNC(=O)OCC2c3ccccc3-c3ccccc32)NC1=O` [Example 75], the “IC50 HDAC7” value on HDAC7 is “no activity”. Further, the GI50 came to 40 nM in [1]; 20 nM in [2]; 42 nM in experiment [3]; 20 nM in [4]; 28 nM in experiment [5]; 42 nM in experiment [6]. For the same molecule, the GI50 in [7] is 40 nM; in [8], 60 nM; in experiment [9], 35 nM; in experiment [10], 28 nM; in experiment [11], 61 nM; in experiment [12] it was 26 nM. In addition, the GI50 in experiment [13] is 20 nM; in [14] it was 35 nM; in experiment [15] it was 30 nM; in experiment [16], 22 nM; in experiment [17], 40 nM; in experiment [18], 41 nM. Further, the values for the GI50 in [19] and in experiment [20] were 20 nM and 30 nM, respectively.

For orientation: IC50 means the concentration that gives 50% inhibition. The GI50 is the concentration that inhibits growth by half.
